Where “and” joins values, the source holds several entries; their conditions need not be identical. Equal entries are not always repeated. Numbers after ± are expanded uncertainties.
Key:
[1] = 298.15 K; for surface tension liquid-gas: Pendant drop shape; for mass density: 101.33 kPa, Liquid
[2] = xn = mol fraction of the nth substance listed; conditions: 298.15 K, Pendant drop shape

Compound `Cc1ccc(C)c(C)c1` [1,2,4-trimethylbenzene] has a surface tension liquid-gas [1] of 29.25 ± 0.33 mN/m and a mass density [1] of 871.64 ± 0.41 kg/m3.

Compound `Cc1ccc(C)c(C)c1` [1,2,4-trimethylbenzene] + C1CCOC1 has a surface tension liquid-gas ([2]; x2 = 0) of 29.25 ± 0.33 mN/m, a surface tension liquid-gas ([2]; x2 = 0.0988) of 29.11 ± 0.32 mN/m and a surface tension liquid-gas ([2]; x2 = 0.2018) of 29 ± 0.32 mN/m. The surface tension liquid-gas ([2]; x2 = 0.3003) was 28.88 ± 0.31 mN/m, the surface tension liquid-gas ([2]; x2 = 0.3995) was 28.73 ± 0.31 mN/m and the surface tension liquid-gas ([2]; x2 = 0.5002) was 28.53 ± 0.3 mN/m. For the same compound, the surface tension liquid-gas ([2]; x2 = 0.6005) was 28.29 ± 0.3 mN/m, the surface tension liquid-gas ([2]; x2 = 0.6986) was 28.01 ± 0.3 mN/m and the surface tension liquid-gas ([2]; x2 = 0.7996) was 27.68 ± 0.29 mN/m. The surface tension liquid-gas ([2]; x2 = 0.9006) was 27.34 ± 0.29 mN/m.

With `Cc1ccc(C)c(C)c1` [1,2,4-trimethylbenzene] + C[S+](C)[O-] the surface tension liquid-gas ([2]; x2 = 0) was 29.25 ± 0.33 mN/m, the surface tension liquid-gas ([2]; x2 = 0.1007) was 28.48 ± 0.32 mN/m and the surface tension liquid-gas ([2]; x2 = 0.2007) was 28.77 ± 0.32 mN/m. The surface tension liquid-gas ([2]; x2 = 0.3007) was 28.81 ± 0.32 mN/m, the surface tension liquid-gas ([2]; x2 = 0.3995) was 29.1 ± 0.32 mN/m and the surface tension liquid-gas ([2]; x2 = 0.501) was 29.46 ± 0.32 mN/m. It also gave a surface tension liquid-gas ([2]; x2 = 0.6012) of 29.34 ± 0.32 mN/m, a surface tension liquid-gas ([2]; x2 = 0.6992) of 29.35 ± 0.32 mN/m and a surface tension liquid-gas ([2]; x2 = 0.7992) of 30.04 ± 0.33 mN/m. The surface tension liquid-gas ([2]; x2 = 0.9013) was 35.71 ± 0.38 mN/m.

`Cc1ccc(C)c(C)c1` [1,2,4-trimethylbenzene] + ClC(Cl)(Cl)Cl gave a surface tension liquid-gas ([2]; x2 = 0) of 29.25 ± 0.33 mN/m, a surface tension liquid-gas ([2]; x2 = 0.0496) of 29.13 ± 0.32 mN/m and a surface tension liquid-gas ([2]; x2 = 0.0996) of 29.04 ± 0.32 mN/m. It also gave a surface tension liquid-gas ([2]; x2 = 0.1986) of 28.89 ± 0.32 mN/m, a surface tension liquid-gas ([2]; x2 = 0.3001) of 28.72 ± 0.32 mN/m and a surface tension liquid-gas ([2]; x2 = 0.4006) of 28.5 ± 0.31 mN/m. For the same compound, the surface tension liquid-gas ([2]; x2 = 0.5987) was 28.24 ± 0.31 mN/m, the surface tension liquid-gas ([2]; x2 = 0.6986) was 27.89 ± 0.3 mN/m and the surface tension liquid-gas ([2]; x2 = 0.7985) was 27.54 ± 0.3 mN/m. For the same compound, the surface tension liquid-gas ([2]; x2 = 0.9011) was 27.13 ± 0.29 mN/m.

For `Cc1cc(C)cc(C)c1` [1,3,5-trimethylbenzene], the surface tension liquid-gas [1] was 28.09 ± 0.31 mN/m and 26.76 ± 0.3 mN/m and the mass density [1] was 861.03 ± 0.38 kg/m3.

For `Cc1cc(C)cc(C)c1` [1,3,5-trimethylbenzene] + C1CCOC1, the surface tension liquid-gas ([2]; x2 = 0) was 28.09 ± 0.31 mN/m, the surface tension liquid-gas ([2]; x2 = 0.0481) was 27.88 ± 0.31 mN/m and the surface tension liquid-gas ([2]; x2 = 0.2021) was 27.72 ± 0.3 mN/m. For the same compound, the surface tension liquid-gas ([2]; x2 = 0.3002) was 27.57 ± 0.3 mN/m, the surface tension liquid-gas ([2]; x2 = 0.4) was 27.44 ± 0.3 mN/m and the surface tension liquid-gas ([2]; x2 = 0.5004) was 27.32 ± 0.29 mN/m. The surface tension liquid-gas ([2]; x2 = 0.601) was 27.23 ± 0.29 mN/m, the surface tension liquid-gas ([2]; x2 = 0.7003) was 27.15 ± 0.29 mN/m and the surface tension liquid-gas ([2]; x2 = 0.7989) was 27.09 ± 0.29 mN/m. It also gave a surface tension liquid-gas ([2]; x2 = 0.9) of 27.06 ± 0.29 mN/m.

In the case of `Cc1cc(C)cc(C)c1` [1,3,5-trimethylbenzene] + C[S+](C)[O-], the surface tension liquid-gas ([2]; x2 = 0) is reported as 28.09 ± 0.31 mN/m, the surface tension liquid-gas ([2]; x2 = 0.1023) is reported as 27.3 ± 0.3 mN/m and the surface tension liquid-gas ([2]; x2 = 0.1987) is reported as 26.92 ± 0.3 mN/m. The surface tension liquid-gas ([2]; x2 = 0.3027) was 26.7 ± 0.3 mN/m, the surface tension liquid-gas ([2]; x2 = 0.401) was 27.41 ± 0.3 mN/m and the surface tension liquid-gas ([2]; x2 = 0.4999) was 28.4 ± 0.31 mN/m. For the same compound, the surface tension liquid-gas ([2]; x2 = 0.6003) was 30.09 ± 0.33 mN/m, the surface tension liquid-gas ([2]; x2 = 0.699) was 32.05 ± 0.34 mN/m and the surface tension liquid-gas ([2]; x2 = 0.8003) was 34.77 ± 0.37 mN/m. For the same compound, the surface tension liquid-gas ([2]; x2 = 0.8998) was 37.92 ± 0.39 mN/m.

`Cc1cc(C)cc(C)c1` [1,3,5-trimethylbenzene] + ClC(Cl)(Cl)Cl gave a surface tension liquid-gas ([2]; x1 = 1) of 26.76 ± 0.3 mN/m.

With `C[S+](C)[O-]` [dimethyl sulfoxide] the surface tension liquid-gas [1] was 42.09 ± 0.43 mN/m and the mass density [1] was 1095.54 ± 0.42 kg/m3.

Work on `C[S+](C)[O-]` [dimethyl sulfoxide] + Cc1cc(C)cc(C)c1 yielded a surface tension liquid-gas ([2]; x1 = 1) of 42.09 ± 0.43 mN/m.

For `C[S+](C)[O-]` [dimethyl sulfoxide] + Cc1ccc(C)c(C)c1, the surface tension liquid-gas ([2]; x1 = 1) was 42.09 ± 0.43 mN/m.

For `ClC(Cl)(Cl)Cl` [tetrachloromethane], the surface tension liquid-gas [1] was 27.76 ± 0.3 mN/m and 26.76 ± 0.29 mN/m and 28.09 ± 0.3 mN/m and the mass density [1] was 1583.8 ± 0.76 kg/m3.

With `ClC(Cl)(Cl)Cl` [tetrachloromethane] + Cc1cc(C)cc(C)c1 the surface tension liquid-gas ([2]; x2 = 0) was 28.09 ± 0.3 mN/m, the surface tension liquid-gas ([2]; x2 = 0.1009) was 27.77 ± 0.3 mN/m and the surface tension liquid-gas ([2]; x2 = 0.2014) was 27.53 ± 0.3 mN/m. For the same compound, the surface tension liquid-gas ([2]; x2 = 0.2994) was 27.29 ± 0.3 mN/m, the surface tension liquid-gas ([2]; x2 = 0.4007) was 27.1 ± 0.3 mN/m and the surface tension liquid-gas ([2]; x2 = 0.4998) was 26.99 ± 0.3 mN/m. The surface tension liquid-gas ([2]; x2 = 0.5995) was 26.91 ± 0.3 mN/m, the surface tension liquid-gas ([2]; x2 = 0.6988) was 26.86 ± 0.3 mN/m and the surface tension liquid-gas ([2]; x2 = 0.797) was 26.83 ± 0.3 mN/m. For the same compound, the surface tension liquid-gas ([2]; x2 = 0.9012) was 26.81 ± 0.3 mN/m.

In the case of `ClC(Cl)(Cl)Cl` [tetrachloromethane] + Cc1ccc(C)c(C)c1, the surface tension liquid-gas ([2]; x1 = 1) is reported as 26.76 ± 0.29 mN/m.

`C1CCOC1` [tetrahydrofuran] showed a surface tension liquid-gas [1] of 27.04 ± 0.29 mN/m and a mass density [1] of 882.06 ± 0.21 kg/m3.

For `C1CCOC1` [tetrahydrofuran] + Cc1cc(C)cc(C)c1, the surface tension liquid-gas ([2]; x1 = 1) was 27.04 ± 0.29 mN/m.

With `C1CCOC1` [tetrahydrofuran] + Cc1ccc(C)c(C)c1 the surface tension liquid-gas ([2]; x1 = 1) was 27.04 ± 0.29 mN/m.
